Results from PMC8402619 (Viruses, 2021).

Key:
[1] = Plasma protein binding by equilibrium dialysis, rat plasma; assay type: in vitro ADME; details: pH 7.4
[2] = molecular target: T1, recombinant human adenosine deaminase (ADA) (Homo sapiens, UniProt P00813); test: Metabolism and enzyme kinetics with recombinant human ADA; assay type: in vitro ADME
T1 construct: purchased Novus Biologicals, LLC

[3] = Renal clearance after 1 mg/kg intravenous, rabbit; assay type: in vivo, female Dutch Belted rabbits; details: 1 mg/kg intravenously
CYP2B6 = molecular target: T2, CYP2B6 (Homo sapiens, UniProt P20813); test: Reversible CYP inhibition in pooled human liver microsomes; assay type: in vitro ADME
T2 sequence (P20813 1-491): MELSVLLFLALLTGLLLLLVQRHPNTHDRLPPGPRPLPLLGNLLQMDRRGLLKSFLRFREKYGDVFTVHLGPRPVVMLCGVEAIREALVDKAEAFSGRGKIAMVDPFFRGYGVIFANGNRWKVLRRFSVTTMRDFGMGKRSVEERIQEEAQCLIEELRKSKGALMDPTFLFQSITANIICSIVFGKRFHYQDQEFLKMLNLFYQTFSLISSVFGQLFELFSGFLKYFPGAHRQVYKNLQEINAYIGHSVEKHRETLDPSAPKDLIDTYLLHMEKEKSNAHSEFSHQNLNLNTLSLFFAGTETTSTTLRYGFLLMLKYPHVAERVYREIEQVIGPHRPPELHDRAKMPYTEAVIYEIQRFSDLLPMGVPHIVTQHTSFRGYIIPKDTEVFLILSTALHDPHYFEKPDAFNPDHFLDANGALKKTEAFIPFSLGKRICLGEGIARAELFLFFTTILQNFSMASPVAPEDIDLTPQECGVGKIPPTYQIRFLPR

CYP2C9 [4] = molecular target: T3, CYP2C9 (Homo sapiens, UniProt P11712); test: as above; assay type: in vitro ADME
CYP2C19 = CYP2C19 (Homo sapiens, UniProt P33261); test: as above; assay type: in vitro ADME
CYP2C9 [5] = molecular target: T3, CYP2C9; test: Time-dependent CYP inhibition in pooled human liver microsomes; assay type: in vitro ADME
CYP3A4 = CYP3A4 (Homo sapiens, UniProt P08684); test: as above; assay type: in vitro ADME
OATP1B1 = molecular target: T4, OATP1B1 (Homo sapiens, UniProt Q9Y6L6); test: Inhibition of transporter-mediated probe uptake in HEK293-OATP1B1 cells; assay type: in vitro ADME
T4 construct: host or cells: HEK293
T4 sequence (Q9Y6L6 1-691): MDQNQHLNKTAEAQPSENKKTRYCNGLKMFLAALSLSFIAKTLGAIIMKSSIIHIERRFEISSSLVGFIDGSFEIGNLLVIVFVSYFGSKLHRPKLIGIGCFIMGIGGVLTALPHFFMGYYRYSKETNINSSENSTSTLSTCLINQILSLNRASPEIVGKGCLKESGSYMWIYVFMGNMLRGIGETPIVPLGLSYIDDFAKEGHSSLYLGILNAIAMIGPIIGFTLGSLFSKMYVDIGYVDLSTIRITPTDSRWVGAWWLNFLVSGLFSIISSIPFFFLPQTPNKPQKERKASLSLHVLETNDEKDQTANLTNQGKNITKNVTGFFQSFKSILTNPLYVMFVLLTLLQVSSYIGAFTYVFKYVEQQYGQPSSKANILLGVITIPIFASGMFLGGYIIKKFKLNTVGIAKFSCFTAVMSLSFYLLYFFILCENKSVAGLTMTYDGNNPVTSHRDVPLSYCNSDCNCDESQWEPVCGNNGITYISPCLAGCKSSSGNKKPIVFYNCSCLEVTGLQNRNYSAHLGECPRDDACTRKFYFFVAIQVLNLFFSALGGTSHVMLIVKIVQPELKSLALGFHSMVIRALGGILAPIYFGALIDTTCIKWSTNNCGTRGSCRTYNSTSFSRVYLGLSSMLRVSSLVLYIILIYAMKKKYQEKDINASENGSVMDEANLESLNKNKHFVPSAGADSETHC

BSEP = molecular target: T5, BSEP (Homo sapiens, UniProt O95342); test: Inhibition of ATP-dependent probe uptake in Sf9 membrane vesicles; assay type: in vitro ADME; details: BSEP-mediated ATP-dependent uptake of taurocholic acid
T5 construct: purchased Thermo Fisher Scientific; host or cells: Sf9

OAT1 = molecular target: T6, OAT1 (Homo sapiens, UniProt Q4U2R8); test: Inhibition of transporter-mediated probe uptake in MDCKII-OAT1 cells; assay type: in vitro ADME
T6 construct: expressed in transfected cells; host or cells: MDCKII
T6 sequence (Q4U2R8 1-563): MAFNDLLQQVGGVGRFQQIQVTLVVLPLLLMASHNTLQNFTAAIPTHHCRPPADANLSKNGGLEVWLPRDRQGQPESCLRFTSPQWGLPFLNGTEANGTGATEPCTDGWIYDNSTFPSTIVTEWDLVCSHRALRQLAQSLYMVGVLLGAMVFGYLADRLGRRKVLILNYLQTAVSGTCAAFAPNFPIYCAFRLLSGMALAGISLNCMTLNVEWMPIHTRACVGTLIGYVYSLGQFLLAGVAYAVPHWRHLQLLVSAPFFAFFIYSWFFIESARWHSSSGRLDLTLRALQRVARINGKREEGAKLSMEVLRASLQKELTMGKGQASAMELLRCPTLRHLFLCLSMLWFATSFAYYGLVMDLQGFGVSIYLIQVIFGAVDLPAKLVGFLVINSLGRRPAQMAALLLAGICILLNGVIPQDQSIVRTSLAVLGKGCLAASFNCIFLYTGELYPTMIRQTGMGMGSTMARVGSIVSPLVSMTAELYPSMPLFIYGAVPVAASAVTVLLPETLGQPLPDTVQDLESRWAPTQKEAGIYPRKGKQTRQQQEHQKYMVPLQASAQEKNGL

HIV-1 = details: cited from earlier work

CYP2C19, sequence (P33261 whole entry): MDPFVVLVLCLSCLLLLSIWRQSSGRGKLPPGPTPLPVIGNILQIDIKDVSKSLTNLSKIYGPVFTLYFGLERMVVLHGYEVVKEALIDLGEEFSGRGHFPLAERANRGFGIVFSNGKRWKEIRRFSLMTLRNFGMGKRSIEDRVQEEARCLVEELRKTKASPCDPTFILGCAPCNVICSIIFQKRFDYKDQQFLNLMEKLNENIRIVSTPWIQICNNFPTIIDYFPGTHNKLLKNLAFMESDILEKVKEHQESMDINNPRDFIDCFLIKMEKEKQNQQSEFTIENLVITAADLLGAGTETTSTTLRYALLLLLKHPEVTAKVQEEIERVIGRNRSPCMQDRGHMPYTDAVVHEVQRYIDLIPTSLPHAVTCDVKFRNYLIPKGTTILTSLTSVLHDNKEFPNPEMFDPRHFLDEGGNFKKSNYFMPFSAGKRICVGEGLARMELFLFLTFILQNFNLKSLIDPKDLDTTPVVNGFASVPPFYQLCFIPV
T3 sequence (P11712 whole entry): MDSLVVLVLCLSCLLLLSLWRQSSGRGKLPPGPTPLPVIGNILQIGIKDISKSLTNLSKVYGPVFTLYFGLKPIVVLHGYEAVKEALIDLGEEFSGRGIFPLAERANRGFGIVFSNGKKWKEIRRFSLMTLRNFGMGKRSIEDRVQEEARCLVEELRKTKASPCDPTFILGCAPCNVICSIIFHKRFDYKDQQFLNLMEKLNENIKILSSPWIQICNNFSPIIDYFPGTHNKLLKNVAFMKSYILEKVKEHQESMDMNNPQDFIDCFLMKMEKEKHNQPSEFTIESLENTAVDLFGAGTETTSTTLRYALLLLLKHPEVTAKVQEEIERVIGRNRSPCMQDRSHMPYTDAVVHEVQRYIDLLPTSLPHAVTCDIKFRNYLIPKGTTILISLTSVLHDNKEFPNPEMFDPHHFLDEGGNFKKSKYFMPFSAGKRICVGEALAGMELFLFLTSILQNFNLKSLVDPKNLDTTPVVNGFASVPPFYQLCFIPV
CYP3A4, sequence (P08684 whole entry): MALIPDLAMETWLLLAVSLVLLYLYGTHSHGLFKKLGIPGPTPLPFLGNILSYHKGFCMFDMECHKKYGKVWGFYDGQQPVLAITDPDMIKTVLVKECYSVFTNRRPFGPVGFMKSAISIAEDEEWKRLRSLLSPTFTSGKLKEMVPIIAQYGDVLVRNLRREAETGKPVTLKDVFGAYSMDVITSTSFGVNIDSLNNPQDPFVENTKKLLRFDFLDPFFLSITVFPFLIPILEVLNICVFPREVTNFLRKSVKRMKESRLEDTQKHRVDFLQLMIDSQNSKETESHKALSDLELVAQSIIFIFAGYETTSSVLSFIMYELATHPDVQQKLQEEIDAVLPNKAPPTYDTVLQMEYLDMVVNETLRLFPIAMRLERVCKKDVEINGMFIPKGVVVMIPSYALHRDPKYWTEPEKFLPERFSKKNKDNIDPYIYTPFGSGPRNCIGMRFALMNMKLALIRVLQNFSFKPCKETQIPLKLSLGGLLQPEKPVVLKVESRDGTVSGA
T1 sequence (P00813 whole entry): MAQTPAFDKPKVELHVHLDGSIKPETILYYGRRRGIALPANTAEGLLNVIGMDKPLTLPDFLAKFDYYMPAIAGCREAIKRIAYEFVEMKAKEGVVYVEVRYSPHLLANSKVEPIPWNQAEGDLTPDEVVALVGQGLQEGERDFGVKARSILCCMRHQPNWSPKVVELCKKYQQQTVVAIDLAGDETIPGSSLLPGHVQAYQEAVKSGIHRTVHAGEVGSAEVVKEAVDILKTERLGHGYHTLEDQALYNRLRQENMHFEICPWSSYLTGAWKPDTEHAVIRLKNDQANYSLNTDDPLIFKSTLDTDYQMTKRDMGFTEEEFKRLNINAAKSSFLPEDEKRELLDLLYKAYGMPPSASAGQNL
T5 sequence (O95342 whole entry): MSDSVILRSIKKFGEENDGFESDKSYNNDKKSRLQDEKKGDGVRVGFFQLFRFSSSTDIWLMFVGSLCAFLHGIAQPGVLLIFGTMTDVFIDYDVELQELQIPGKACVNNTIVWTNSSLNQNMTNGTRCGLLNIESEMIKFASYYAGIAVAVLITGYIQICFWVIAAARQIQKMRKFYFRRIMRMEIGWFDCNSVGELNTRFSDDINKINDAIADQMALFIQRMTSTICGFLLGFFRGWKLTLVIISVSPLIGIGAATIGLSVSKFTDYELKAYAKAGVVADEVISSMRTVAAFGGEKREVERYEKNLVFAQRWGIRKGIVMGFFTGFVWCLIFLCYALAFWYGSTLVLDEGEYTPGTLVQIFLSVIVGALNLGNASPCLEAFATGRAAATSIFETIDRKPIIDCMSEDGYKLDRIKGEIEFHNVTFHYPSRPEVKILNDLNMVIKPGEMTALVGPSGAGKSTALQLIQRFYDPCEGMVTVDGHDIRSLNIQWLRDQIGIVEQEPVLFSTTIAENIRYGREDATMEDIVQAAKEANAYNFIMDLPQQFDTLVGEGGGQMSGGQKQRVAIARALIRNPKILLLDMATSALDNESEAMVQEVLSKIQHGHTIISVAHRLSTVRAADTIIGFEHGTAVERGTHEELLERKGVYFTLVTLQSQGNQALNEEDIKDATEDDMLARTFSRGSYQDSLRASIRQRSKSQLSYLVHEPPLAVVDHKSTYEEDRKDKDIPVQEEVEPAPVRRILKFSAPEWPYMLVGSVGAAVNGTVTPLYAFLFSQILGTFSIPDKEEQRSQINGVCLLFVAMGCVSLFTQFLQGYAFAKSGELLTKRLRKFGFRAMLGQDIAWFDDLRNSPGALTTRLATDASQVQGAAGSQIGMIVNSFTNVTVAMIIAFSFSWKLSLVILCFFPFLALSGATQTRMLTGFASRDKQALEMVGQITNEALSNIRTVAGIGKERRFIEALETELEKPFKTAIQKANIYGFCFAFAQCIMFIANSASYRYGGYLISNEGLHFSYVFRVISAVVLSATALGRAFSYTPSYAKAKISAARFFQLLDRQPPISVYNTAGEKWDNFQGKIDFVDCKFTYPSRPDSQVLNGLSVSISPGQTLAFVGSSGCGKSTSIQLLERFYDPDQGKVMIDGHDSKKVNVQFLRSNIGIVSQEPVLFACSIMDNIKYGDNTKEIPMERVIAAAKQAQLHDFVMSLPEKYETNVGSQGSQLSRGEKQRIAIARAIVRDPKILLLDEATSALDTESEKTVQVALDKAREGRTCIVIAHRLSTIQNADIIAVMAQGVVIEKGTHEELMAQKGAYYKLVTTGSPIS

Compound: C#C[C@]1(CO)O[C@@H](n2cnc3c(N)nc(F)nc32)C[C@@H]1O [Islatravir, 4′-Ethynyl-2-fluoro-2′-deoxyadenosine]
- fraction unbound at 24 h, 0.1 µM [1]: > 0.84
- ADA-dependent deamination ([2]; 50 µM, 3 h, 1 unit/mL recombinant human ADA): very slow ADA-dependent deamination to M4
- Km ([2]; M4 formation, linear over 1-250 µM islatravir, read-out: Michaelis constant [Km]): > 250 µM
- Renal Excretion (% Total Plasma Clearance) [3]: 31%
- CL renal ([3]; female, Dutch Belted, plasma and urine, iv, urine 0-48 h): 5.3 mL/min/kg
- DDI Potential (CYP2B6; CYP2B6 reversible inhibition, FDA, EMA, PMDA guidance): Low risk
- Maximum Unbound Plasma Concentration (Imax,u) to Ki,u Ratio (CYP2B6; CYP2B6 reversible, 60 mg, Cmax 1.01 µM, fu,p 0.96, Ki,u = IC50/2): <0.019 µM
- IC50 (CYP2B6; reversible, CYP2B6 bupropion hydroxylation, read-out: Islatravir IC50): > 100 µM
- DDI Potential (CYP2C9 [4]; CYP2C9 reversible inhibition, FDA, EMA, PMDA guidance): Low risk
- Maximum Unbound Plasma Concentration (Imax,u) to Ki,u Ratio (CYP2C9 [4]; CYP2C9 reversible, 60 mg, Cmax 1.01 µM, fu,p 0.96, Ki,u = IC50/2): <0.019 µM
- IC50 (CYP2C9 [4]; reversible, CYP2C9 diclofenac 4′-hydroxylation, read-out: Islatravir IC50): > 100 µM
- DDI Potential (CYP2C19; CYP2C19 reversible inhibition, FDA, EMA, PMDA guidance): Low risk
- Maximum Unbound Plasma Concentration (Imax,u) to Ki,u Ratio (CYP2C19; CYP2C19 reversible, 60 mg, Cmax 1.01 µM, fu,p 0.96, Ki,u = IC50/2): <0.019 µM
- IC50 (CYP2C19; reversible, CYP2C19 S-mephenytoin 4′-hydroxylation, read-out: Islatravir IC50): > 100 µM
- time-dependent inhibition (CYP2C9 [5]; CYP2C9, pre-incubation of 10 and 50 µM for up to 30 min): no time-dependent inhibition
- DDI Potential (CYP2C9 [5]; CYP2C9 time dependent inhibition): Low risk ^h
- IC50 (CYP2C9 [5]; time dependent, CYP2C9, read-out: Islatravir IC50): > 50 µM
- time-dependent inhibition (CYP3A4; CYP3A4, pre-incubation of 10 and 50 µM for up to 30 min): no time-dependent inhibition
- DDI Potential (CYP3A4; CYP3A4 time dependent inhibition): Low risk ^h
- IC50 (CYP3A4; time dependent, CYP3A4, read-out: Islatravir IC50): > 50 µM
- IC50 (OATP1B1; OATP1B1-mediated uptake of pitavastatin, read-out: Islatravir IC50): > 300 µM
- Maximum Unbound Inlet Concentration (Iin,max,u) to IC50 Ratio (OATP1B1; OATP1B1, 60 mg dose): <0.035
- DDI Potential (OATP1B1; OATP1B1 inhibition, FDA, EMA, PMDA guidance): Low risk
- IC50 (BSEP): > 100 µM
- IC50 (OAT1; OAT1-mediated cidofovir uptake, read-out: Islatravir IC50): > 100 µM
- Maximum Unbound Plasma Concentration (Imax,u) to IC50 Ratio (OAT1; OAT1, 60 mg, Cmax 1.01 µM, fu,p 0.96): <0.010 µM
- DDI Potential (OAT1; OAT1 inhibition, FDA, EMA, PMDA guidance): Low risk
- tolerability (HIV-1; participants with and without HIV across a range of doses): generally well tolerated
- duration of viral load reduction maintained (HIV-1; single administration at a dose as low as 0.5 mg): 7 days
- duration of viral load suppression (HIV-1; treatment-naïve PLWH, oral doses between 0.5 and 30 mg): at least 7 days
